Test results taken from PMC3411725 (PLoS ONE, 2012).

T1: AroAE.coli (Escherichia coli, UniProt P0A6D3)
T1 construct: gene aroA; overexpressed and purified as P1 (pET-28a, His-tag, E. coli BL21(DE3), HisTrap)
T1 sequence (P0A6D3 1-427): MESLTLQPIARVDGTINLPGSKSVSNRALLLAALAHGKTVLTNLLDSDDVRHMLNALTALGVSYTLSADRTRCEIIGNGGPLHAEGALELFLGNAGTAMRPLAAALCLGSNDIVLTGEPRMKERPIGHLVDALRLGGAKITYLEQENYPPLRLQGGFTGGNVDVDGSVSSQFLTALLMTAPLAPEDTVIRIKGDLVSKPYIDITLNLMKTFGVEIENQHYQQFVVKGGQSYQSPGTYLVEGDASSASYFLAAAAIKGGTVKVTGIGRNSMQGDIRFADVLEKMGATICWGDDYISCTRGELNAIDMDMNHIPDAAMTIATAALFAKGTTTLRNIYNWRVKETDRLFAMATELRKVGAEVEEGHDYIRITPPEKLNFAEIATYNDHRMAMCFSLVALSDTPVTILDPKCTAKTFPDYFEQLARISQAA

B1: AroAE.coli (Escherichia coli K-12) (protein)
chain: T1 sequence (P0A6D3 1-427)
notes: overexpressed and purified as P1 (pET-28a, His-tag, E. coli BL21(DE3), HisTrap)

What was measured:
AroAE.coli [1] = biological target: T1, AroAE.coli; experiment: malachite green phosphate release assay, Lineweaver-Burk; assay type: biochemical; conditions: read-out: K i [glyphosate] ^d
AroAE.coli [2] = biological target: T1, AroAE.coli; experiment: malachite green phosphate release assay, dose-response fit; assay type: biochemical; conditions: read-out: IC50 [glyphosate] ^e
AroAE.coli [3] = biological target: T2, AroAE.coli (Escherichia coli, UniProt P0A6D3, G96A); experiment: biochemical
T2 construct: gene aroA

AroAE.coli [4] = biological target: T2, AroAE.coli; experiment: biochemical; remark: listed apart in the source
[5] = substrate: C=C(OP(=O)(O)O)C(=O)O; experiment: malachite green phosphate release assay, Lineweaver-Burk; assay type: biochemical, Escherichia coli; conditions: 1 mM S3P, 50 mM HEPES pH 7.0, 28°C

Row | Molecule | Ki (AroAE.coli [1]) | IC50 (AroAE.coli [2]) | Ki (AroAE.coli [3]) | IC50 (AroAE.coli [4]) | Km [5]
1 | O=C(O)CNCP(=O)(O)O [glyphosate] | 1.4 ± 0.1 µM | 50 ± 10 µM | 219.3 ± 1.9 µM | 220 ± 20 µM | 
2 | B1 |  |  |  |  | 65.8 ± 5.6 µM
